Test results: patent US7547686B2, “Combretastatin A-3 prodrug” (Arizona Board of Regents, a body corporate of the State of …, priority 2001, dated 2009)

Key:
[1] = type: physicochemical; details: at 25° C.
[2] = system: human cancer cell lines and murine P388 lymphocytic leukemia cell line; experiment: Cancer cell line inhibitory activity, panel as a whole (Table II); type: cell-based
[3] = system: Stenotrophomonas maltophilia, Micrococcus luteus, Staphylococcus aureus, Escherichia coli, Enterobacter cloacae, Enterococcus faecalis, Streptococcus …; experiment: Antimicrobial disk susceptibility testing, bacteria and fungi panel; type: cell-based
Text: (§1) Antimicrobial susceptibility testing. Compounds were screened against the bacteria Stenotrophomonas maltophilia, Micrococcus luteus, Staphylococcus aureus, Escherichia coli, Enterobacter cloacae, Enterococcus faecalis, Streptococcus pneumoniae, Neisseria gonorrhoeae, and the fungi Candida albicans and Cryptococcus neoformans, according to established disk susceptibility testing protocols (National Committee for Clinical Laboratory Standards 1997. Performance standards for antimicrobial disk susceptibility tests-sixth edition: Approved Standard M2-A6, NCCLS, Wayne, Pa.)

[4] = system: Stenotrophomonas maltophilia, Micrococcus luteus, Staphylococcus aureus, Escherichia coli, Enterobacter cloacae, Enterococcus faecalis, Streptococcus …; details: Pettit et al., 2000; cited from earlier work
Cryptococcus neoformans = experiment: Disk diffusion assay, Cryptococcus neoformans; type: cell-based
Text: as §1

SMILES | Solubility [1] [mg/mL] | other results
COc1ccc(/C=C\c2cc(OC)c(OC)c(OP(=O)(O)O)c2)cc1OP(=O)(O)O.NC(=O)c1cccnc1.NC(=O)c1cccnc1.NC(=O)c1cccnc1.NC(=O)c1cccnc1 [Compound 10l] | 27 | –
COc1ccc(/C=C\c2cc(OC)c(OC)c(OP(=O)([O-])O)c2)cc1OP(=O)([O-])O.[Na+].[Na+] [Compound 10a, Sodium combretastatin A-3 3,3′-O-phosphate] | >218 | cancer cell line inhibitory activity (in words) [2]: good cancer cell line inhibitory activity; activity in disk diffusion assays [3]: not active
COc1ccc(/C=C/c2cc(OC)c(OC)c(OC)c2)c(O)c1O [(E)-combretastatin A-1] | – | antibacterial and antifungal activities (literature) [4]: antibacterial and antifungal activities
COc1ccc(/C=C\c2cc(OC)c(OC)c(OP(=O)([O-])O)c2)cc1OP(=O)([O-])O.[Rb+].[Rb+] [Compound 10d] | >60 | –
COc1ccc(/C=C\c2cc(OC)c(OC)c(OP(=O)([O-])[O-])c2)cc1OP(=O)([O-])[O-].[Mg+2].[Mg+2] [Compound 10h] | 10 | –
C1COCCN1.C1COCCN1.COc1ccc(C=Cc2cc(OC)c(OC)c(OP(=O)(O)O)c2)cc1OP(=O)(O)O [Compound 10k] | >40 | –
COc1ccc(/C=C\c2cc(OC)c(OC)c(OP(=O)([O-])O)c2)cc1OP(=O)([O-])O.[K+].[K+] [Compound 10c] | >228 | cancer cell line inhibitory activity (in words) [2]: good cancer cell line inhibitory activity
COc1ccc(/C=C\c2cc(O)c(OC)c(OC)c2)cc1O [Compound 2a, Combretastatin A-3] | – | MIC (Cryptococcus neoformans): 50-100 μg/disk
COc1ccc(/C=C\c2cc(OC)c(OC)c(OP(=O)([O-])O)c2)cc1OP(=O)([O-])O.[Li+].[Li+] [Compound 10b] | >100 | –
